Measurements published in patent US20240002350A1, “PROTEIN AND LIPID THERAPEUTIC TARGETS” (UNIVERSITY OF PITTSBURGH-OF THE COMMONWEALTH SYSTEM OF …, priority 2020, published 2024).
Read-outs that look alike come from different tables or passages of the source.

Experiments:
[1] = tested on: 15LOX/PEBP1; assay: Potency of 15LOX/PEBP1 inhibitors with anti-ferroptotic effect (Table 1); type: cell-based
Excerpt: Development and testing of new compounds that inhibit 15LOX/PEBP1 complex activity. A combination of computational and experimental studies are used. […] Computer modeling considers specific features of organization of 15LOX/PEBP1 complexes and positioning of AA-PE as well as regio-specific oxygenation of AA-residues at 15th carbon. […] It has been shown that: i) binding interface of 15LOX in 15LOX/PEBP1 complex includes a helix on 15LOX (α2) and kinase binding epitope (D144, H145, R146) on PEBP1 (FIG. 8); and ii) interfacial interactions play a pivotal role in allosterically altering conformational dynamics of 15LOX in complex, and its substrate specificity. Analysis of change in access to catalytic site upon PEBP1 binding, using elastic network models indicates needed sites at 15LOX/PEBP1 binding interface. Dynamics simulations are also performed, for 15LOX alone and 15LOX/PEBP1 complex. An effective inhibitor, NCG-01, with in vivo activity has been indicated. Several other 15LOX/PEBP1 inhibitors with anti-ferroptotic effect (FIG. 9) have been identified. To test the effectiveness of compounds identified from the computational screen, RSL3 and mechanical stretch models with LDH and PI assays as a primary outcome are performed. The compounds that inhibit cell death by at least 50% are then evaluated for their effects on AA-PE and AA oxidation by 15LOX/PEBP1 complex and 15LOX alone, respectively, by LC-MS. Evaluation of the effect of compounds in suppressing AA-PE-OOH formation in cells upon proferroptotic stimuli is also performed.

[2] = tested on: ferroptosis triggered by RSL3 (GPX4 inhibition) or Erastin (GSH depletion) in cells; assay: Suppression of ferroptosis triggered by RSL3 or Erastin in cells; type: cell-based; conditions: read-out: half maximal activity, suppression of ferroptosis
Experimental: (§1) FIGS. 7A-7C show 15LOX/[…] complex inhibitor, NCGC00599973-01.
FER.1 (500 nM) is positive control. Insert: Chemical formula of two of the compounds.
(§2) It was established that a change in substrate specificity of 15LOX is achieved upon complex formation with PEBP1 whereby structural rearrangements are mainly responsible for the selectivity and specificity leading to the formation of 15-HOO-AA-PE as the oxidation product. Thus, new selective anti-ferroptotic inhibitors of 15LOX/PEBP1 complex were designed. These inhibitors should not interfere with oxidation of free AA, DPA, DHA. […] The compound is a poor inhibitor of 15LOX alone with free AA as a substrate. […] Site 1 is at 15LOX/PEBP1 binding interface (binding energy −10.1 kcal/mol) and site 2 is at catalytic site (binding energy −8.9 kcal/mol).

[3] = tested on: 15LOX alone; assay: Inhibition of 15LOX alone with free AA as a substrate; type: biochemical; conditions: 20 μM
Excerpt: as §2
(§3) Development and testing of new compounds that inhibit 15LOX/PEBP1 complex activity. A combination of computational and experimental studies are used. […] Computer modeling considers specific features of organization of 15LOX/PEBP1 complexes and positioning of AA-PE as well as regio-specific oxygenation of AA-residues at 15th carbon. […] The compounds that inhibit cell death by at least 50% are then evaluated for their effects on AA-PE and AA oxidation by 15LOX/PEBP1 complex and 15LOX alone, respectively, by LC-MS. […]

[4] = tested on: 15LOX/PEBP1 complex; assay: Inhibition of activity of 15LOX/PEBP1 complex; type: biochemical
Excerpt: as §2, §3

[5] = tested on: HOO-AA-PE; assay: RSL3-induced accumulation of pro-ferroptotic HOO-AA-PE in vitro; type: cell-based
Excerpt: as §1, §2

[6] = tested on: whole body irradiation (9.25Gy); assay: Survival after whole body irradiation; type: in vivo; conditions: oxidant injury induced by ionizing radiation
Excerpt: as §1, §2

[7] = tested on: PND17 rats; assay: Controlled cortical impact (CCI) TBI model in PND17 rats; type: in vivo, rat
Experimental: (§4) Time course studies (0, 4, 8, 24 and 72 h) of TBI-induced changes in i) PE oxidation (oxidative lipidomics); ii) expression and activity of 15LOX, PEBP1, ACSL4, LPCAT3, iPLA2β and GPX4 (western blot); iii) formation of 15LOX/PEBP1 complexes (dual object recognition); and iv) GSH levels (fluorescent assay) will be performed as follows. An established model of in vitro TBI, severe mechanical stretch injury in primary cortical neurons, can be used. In brief, cortical neurons are cultured on 0.05% poly-D-lysine hydrobromide coated silicone substrate wells, and subjected to a computer controlled quantifiable mechanical insult by displacing the silicone substrate over a hollowed platform. In vivo TBI is induced by severe CCI (6-mm impactor tip, velocity of ±0.2 m/secs, deformation depth of 2.5 mm, impact duration of 50 msecs) to left parietal cortex in male and female PND 17 rats. To maximize rigor and reproducibility, animals are assigned to either sham (anesthesia and craniotomy) or CCI groups by block randomization. To ensure appropriate sample size for robustness, power analyses are performed in each experimental context. A sample size of 5 is preferred to detect a 25% difference in PE-OOH between CCI and control based on standard deviation observed in the experiments with an alpha of 0.05 and power of 0.80. Group assignments are blinded to the investigators who perform biochemical and histological endpoints. Statistical differences are analyzed using one-way ANOVA with post-hoc comparisons between groups if overall p<0.05 as appropriate. To address biological variability, both sexes are included.
Histological outcome assessment. Brains are quantitatively analyzed for total number of specific cell types and lesion volume using unbiased stereology as described. Diagnostic of ferroptosis in vivo are: 1) accumulation of doubly and triply oxygenated AA-PE species; 2) increased ACSL4; 3) decreased GPX4 activity or deficiency of GSH; 4) increased activity and expression of 15LOX; and 5) high levels of 15LOX-PEBP1 co-localization detectable by dual object recognition. […] TUNEL staining is used to quantify cell death. TUNEL is commonly used to detect apoptotic cells. However, cells undergoing other types of regulated death, including ferroptosis, are also TUNEL positive. In order to determine the apoptotic cell death, staining with cleaved caspase-3 antibody is performed.
Neurocognitive function is assessed by novel object recognition (NOR) and MWM (Morris Water Maze) tests. For NOR testing, rat is placed in a small enclosure with two similar objects and allowed to explore for a 35 min habituation phase. […] Percent time exploring original vs. novel object is recorded (2 min max). […] Visible platform performance and memory retention in a single probe trial on d17 are assessed. […]

[8] = tested on: neurons; assay: Severe mechanical stretch injury in neurons; type: cell-based, rat; conditions: 3-4 psi; Fer-1 0.4 μM, Triacsin C 10 μM, baicalein 5 μM
Experimental: Mean+SD, N=4/group, *p<0.05 vs 0 h. […] Mean±SD, N=3-4/group, *p<0.05 vs control, #p<0.05 vs vehicle. […] Mean+SD, N=4/group, *p<0.05 vs vehicle.
as §4

Row | SMILES | Potency [1] | EC50 ([2]; ferroptosis triggered by Erastin (GSH depletion) in cells) | EC50 ([2]; ferroptosis triggered by RSL3 (GPX4 inhibition) in cells) | inhibition of 15LOX alone [3] | activity of 15LOX/PEBP1 complex [4] | RSL3-induced accumulation of pro-ferroptotic HOO-AA-PE [5] | survival [6] | neurodegeneration assessed by FJB positivity ([7]; i.c.v. administration after CCI, 24 h post-CCI) | cell death after severe mechanical stretch injury [8] | AA-PE oxidation ([7]; 50 mg/kg i.p. 15 min after CCI) | functional deficits in MWM task ([7]; 50 mg/kg i.p. 15 min after CCI) | hippocampal TUNEL positivity ([7]; 50 mg/kg i.p. 15 min after CCI)
1 | Fc1cccc(-n2cc(-c3ccccc3)nc2SCc2ccc(C(F)(F)F)cc2)c1 [Compound 12, 1-(3-fluorophenyl)-4-phenyl-2-((4-(trifluoromethyl)benzyl)thio)-1H-imidazole] | ++ (++ = 101-1000 nM) | 140 nM | 175 nM | ~4.5% | inhibits activity | suppresses | improves survival |  |  |  |  | 
2 | CCC/C=C/C/C=C/C=C/C=N/NN=O [Triacsin C] |  |  |  |  |  |  |  | attenuated neurodegeneration | rescued |  |  | 
3 | O=c1cc(-c2ccccc2)oc2cc(O)c(O)c(O)c12 [baicalein] |  |  |  |  |  |  |  |  | rescued | decreased | attenuated | attenuated
